# Experimental data as given in patent publication US7138421B2, “Anti-androgenic pyrrolidines with tumor-inhibiting action” (Schring Aktiengesellschaft, priority 2003, dated 2006).
# Like-named read-outs stand apart in the source and are kept apart here.
# Key:
# LNCaP cells = test: Inhibition of the proliferation of LNCaP cells (crystal violet assay); format: cell-based, human; conditions: for inhibition at 1 µM / IC50: Homo sapiens, LNCaP; for IC50: 7 to 8 days; for antiproliferative action (in words): LNCaP cells
# Procedure: For the proliferation assay, 6000 LNCaP cells/well (Horoszewicz et al. Cancer Res. 1983, 43, 1809–1817) in a microtiter plate (96-well) in 50 μl of RPMI1640 medium are grown with 5% CCS and cultivated as in Model 1. After 24 hours, the cells receive 50 μl of 2×-concentrated test substance, diluted in culture medium. The solvent concentration is 0.5% DMSO. After 4 days, the cells receive another 100 μl of 1×-concentrated test substance, diluted in culture medium. After 7 to 8 days, the proliferation rate of the cells is determined by means of crystal violet assay (Gillies et al. Anal. Biochem. 1986, 159, 109–113). To determine the antagonism, the substance treatment is performed in the presence of […] of R1881 (1:1000 dilution of ethanolic solution). Control cells receive only 0.5% DMSO. For the agonism, the cells are treated only with test substance (without R1881).
# seminal vesicles = test: Anti-androgenic action on testosterone-stimulated growth of the seminal vesicles of castrated mice; format: in vivo, mouse; conditions: 7 days, castrated mice with testosterone propionate
# Procedure: The function and the size of accessory reproductive glands (prostate and seminal vesicles) depend on androgens. In castrated animals, a growth of these organs is induced by the administration of androgen. Simultaneous treatment with anti-androgens inhibits this growth in a dose-dependent manner. For the examination of test substances, the mice were castrated. On the same day, treatment with testosterone propionate (0.03 mg/mouse) and the test substances (1× daily 10 or 30 mg/kg p.o. in benzyl benzoate-castor oil or ethanol/peanut oil (10:90)) was formulated. The treatment was carried out over 7 days and at the end of the test, the weights of the seminal vesicles and prostate were determined. The inhibition of the seminal vesicle growth, in percent, was calculated in reference to the control groups (with and without testosterone). As a reference substance, cyproterone acetate (30 mg/kg s.c. and p.o.) was used.
# androgen receptor = target: T1, androgen receptor (Homo sapiens, UniProt P10275, T878A); format: cell-based
# T1 construct: Destabilization of AR in LNCaP Cells by Test Substances; endogenous in cells; host or cells: LNCaP (human prostate cell line)
# T1 sequence (P10275 1-920 T878A): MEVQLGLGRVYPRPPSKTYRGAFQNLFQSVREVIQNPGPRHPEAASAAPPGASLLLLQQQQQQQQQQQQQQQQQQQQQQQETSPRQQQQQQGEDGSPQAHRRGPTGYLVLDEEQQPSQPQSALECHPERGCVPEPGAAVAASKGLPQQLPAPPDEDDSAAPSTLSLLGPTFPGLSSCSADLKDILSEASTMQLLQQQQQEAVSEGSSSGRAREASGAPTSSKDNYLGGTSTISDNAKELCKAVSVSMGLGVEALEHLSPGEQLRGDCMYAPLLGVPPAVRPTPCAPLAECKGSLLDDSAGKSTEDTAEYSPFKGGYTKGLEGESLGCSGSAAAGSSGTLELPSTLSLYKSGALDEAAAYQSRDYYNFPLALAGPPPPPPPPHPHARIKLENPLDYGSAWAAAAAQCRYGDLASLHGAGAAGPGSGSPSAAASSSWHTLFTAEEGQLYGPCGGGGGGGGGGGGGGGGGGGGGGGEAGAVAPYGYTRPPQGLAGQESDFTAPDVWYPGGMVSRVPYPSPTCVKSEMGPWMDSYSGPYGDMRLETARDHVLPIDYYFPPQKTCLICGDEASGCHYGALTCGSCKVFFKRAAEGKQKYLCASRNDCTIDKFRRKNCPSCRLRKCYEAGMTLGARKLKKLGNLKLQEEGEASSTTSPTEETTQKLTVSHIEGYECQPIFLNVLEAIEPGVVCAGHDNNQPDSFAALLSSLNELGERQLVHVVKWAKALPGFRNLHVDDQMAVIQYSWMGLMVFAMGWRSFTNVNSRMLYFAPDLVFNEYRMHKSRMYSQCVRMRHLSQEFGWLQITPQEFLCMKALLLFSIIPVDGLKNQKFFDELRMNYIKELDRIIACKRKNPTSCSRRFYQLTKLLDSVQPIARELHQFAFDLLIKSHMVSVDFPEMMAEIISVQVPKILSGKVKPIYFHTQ
# [1] = 1 μM test substance, compared to cell growth in the presence of 0.1 nmol of R1881, read-out: % Inhibition at 1 μM
# [2] = read-out: IC50 inhibition of the proliferation of LNCaP cells, in the presence of 0.1 nmol of R1881
# [3] = LNCaP cells, 48 h, 1 μM, % of DMSO control
# [4] = in the presence of 0.1 nmol of R1881, read-out: IC50 inhibition of the proliferation of LNCaP cells
# [5] = LNCaP cells, 48 h, 10 μM, % of DMSO control
Compound,inhibition at 1 µM (LNCaP cells; [1]),IC50 (LNCaP cells; [2]),AR Content at 1 μM (androgen receptor; [3]),IC50 (LNCaP cells; [4]),further results
"CC(O)(CS(=O)(=O)c1ccc(F)cc1)C(=O)Nc1ccc(C#N)c(C(F)(F)F)c1 (centres unmarked) [Bicalutamide, N-[4-Cyano-3-(trifluoromethyl)phenyl]-3-[(4-fluorophenyl)sulfonyl]-2-hydroxy-2-methylpropanamide, reference compound]",85%,–,–,–,"% Inhibition of MSB Growth (seminal vesicles; 30 mg/kg p.o., 1× daily): 82%; % Inhibition of MSB Growth (seminal vesicles; 30 mg/kg s.c.): 86%"
"CC(=O)O[C@]1(C(C)=O)CC[C@H]2[C@@H]3C=C(Cl)C4=CC(=O)[C@@H]5C[C@@H]5[C@]4(C)[C@H]3CC[C@@]21C [CPA, 17-(acetyloxy)-6-chloro-1β,2β-dihydro-3′H -cyclopropa[1,2]pregna-1,4,6-triene-3,20-dione, reference compound]",–,–,–,–,% Inhibition of MSB Growth (seminal vesicles; 30 mg/kg s.c.): 85%
"CC1(C)C(=O)N(c2ccc(C#N)c(C(F)(F)F)c2)C(=S)N1CCCCCCCN1CCC[C@H]1CO [Example 9, 4-[3-[7-[(2S)-2-(Hydroxymethyl)pyrrolidin-1-yl]heptyl]-4,4-dimethyl-5-oxo-2-thioxoimidazolidin-1-yl]-2-(trifluoromethyl)benzonitrile]",92%,26 nM,63%,–,–
"C[C@@H]1CC[C@H](C)N1CCCCCCCCN1C(=S)N(c2ccc(C#N)c(C(F)(F)F)c2)C(=O)C1(C)C [Example 37, 4-[3-[8-[(2R,5S)-rel-2,5-Dimethylpyrrolidin-1-yl]octyl]-4,4-dimethyl-5-oxo-2-thioxoimidazolidin-1-yl]-2-(trifluoromethyl)benzonitrile]",99%,11 nM,57%,–,–
"CC(C)(O)[C@@H]1CCCN1CCCCCCCCN1C(=S)N(c2ccc(C#N)c(C(F)(F)F)c2)C(=O)C1(C)C [Example 40, 4-[3-[8-[(2S)-2-(1-Hydroxy-1-methylethyl)pyrrolidin-1-yl]octyl]-4,4-dimethyl-5-oxo-2-thioxoimidazolidin-1-yl]-2-(trifluoromethyl)benzonitrile]",118%,11 nM,40%,–,–
"CC(C)(O)[C@H]1CCCN1CCCCCCCCN1C(=S)N(c2ccc(C#N)c(C(F)(F)F)c2)C(=O)C1(C)C [Example 44, 4-[3-[8-[(2R)-2-(1-Hydroxy-1-methylethyl)pyrrolidin-1-yl]octyl]-4,4-dimethyl-5-oxo-2-thioxoimidazolidin-1-yl]-2-(trifluoromethyl)benzonitrile]",115%,–,–,11 nM,–
"CCC(O)(CC)[C@@H]1CCCN1CCCCCCCCN1C(=S)N(c2ccc(C#N)c(C(F)(F)F)c2)C(=O)C1(C)C [Example 47, 4-[3-[8-[(2S)-2-(1-Hydroxy-1-ethylpropyl)pyrrolidin-1-yl]octyl]-4,4-dimethyl-5-oxo-2-thioxoimidazolidin-1-yl]-2-(trifluoromethyl)benzonitrile]",99%,–,–,27 nM,–
"CC1(C)C(=O)N(c2ccc(C#N)c(C(F)(F)F)c2)C(=S)N1CCCCCCN1CC[C@H](C(N)=O)C1 [Example 49, (S)-1-[6-[3-[4-Cyano-3-(trifluoromethyl)phenyl]-5,5-dimethyl-4-oxo-2-thioxoimidazolidin-1-yl]hexyl]pyrrolidine-4-carboxamide]",110%,–,–,32 nM,–
"CC1(C)C(=O)N(c2ccc(C#N)c(C(F)(F)F)c2)C(=S)N1CCCCCCCN1CC[C@H](C(N)=O)C1 [Example 50, (S)-1-[7-[3-[4-Cyano-3-(trifluoromethyl)phenyl]-5,5-dimethyl-4-oxo-2-thioxoimidazolidin-1-yl]heptyl]pyrrolidine-4-carboxamide]",110%,–,–,15 nM,–
"CC1(C)C(=O)N(c2ccc(C#N)c(C(F)(F)F)c2)C(=S)N1CCCCCCCCN1CC[C@H](C(N)=O)C1 [Example 51, (S)-1-[8-[3-[4-Cyano-3-(trifluoromethyl)phenyl]-5,5-dimethyl-4-oxo-2-thioxoimidazolidin-1-yl]octyl]pyrrolidine-4-carboxamide]",97%,–,–,20 nM,–
"CC1(C)C(=O)N(c2ccc(C#N)c(C(F)(F)F)c2)C(=S)N1CCCCCCN1CC[C@@H](C(N)=O)C1 [Example 52, (R)-1-[6-[3-[4-Cyano-3-(trifluoromethyl)phenyl]-5,5-dimethyl-4-oxo-2-thioxoimidazolidin-1-yl]hexyl]pyrrolidine-4-carboxamide]",100%,12 nM,74%,–,AR Content at 10 μM (androgen receptor; [5]): 36%
"CC1(C)C(=O)N(c2ccc(C#N)c(C(F)(F)F)c2)C(=S)N1CCCCCCCN1CC[C@@H](C(N)=O)C1 [Example 53, (R)-1-[7-[3-[4-Cyano-3-(trifluoromethyl)phenyl]-5,5-dimethyl-4-oxo-2-thioxoimidazolidin-1-yl]heptyl]pyrrolidine-4-carboxamide]",97%,–,–,49 nM,–
"CC1(C)C(=O)N(c2ccc(C#N)c(C(F)(F)F)c2)C(=S)N1CCCCCCCCN1CC[C@@H](C(N)=O)C1 [Example 54, (R)-1-[8-[3-[4-Cyano-3-(trifluoromethyl)phenyl]-5,5-dimethyl-4-oxo-2-thioxoimidazolidin-1-yl]octyl]pyrrolidine-4-carboxamide]",93%,–,–,64 nM,–
"CC1(C)C[C@@H](CN2CCCC2)N(CCCCCCCN2CCN(c3ccc(C#N)c(C(F)(F)F)c3)C2=S)C1=O [Example 56, 4-[3-[7-[(2S)-4,4-Dimethyl-5-oxo-2-(pyrrolidin-1-ylmethyl)pyrrolidin-1-yl]heptyl]-2-thioxoimidazolidin-1-yl]-2-(trifluoromethyl)benzonitrile]",–,–,24%,–,–
"CC1(C)C(=O)N(c2ccc(C#N)c(C(F)(F)F)c2)C(=S)N1CCO [Example 71 USRe 35956, 4-[3-(2-Hydroxyethyl)-4,4-dimethyl-5-oxo-2-thioxoimidazolidin-1-yl]-2-(trifluoromethyl)benzonitrile, reference compound]",9%,> 10000 nM,164%,–,antiproliferative action (in words) (LNCaP cells): little or no antiproliferative action; AR Content at 10 μM (androgen receptor; [5]): 191%
"CC1(C)C(=O)N(c2ccc(C#N)c(C(F)(F)F)c2)C(=S)N1CCCCO [Example 77 USRe 35956, 4-[3-(4-Hydroxybutyl)-4,4-dimethyl-5-oxo-2-thioxoimidazolidin-1-yl]-2-(trifluoromethyl)benzonitrile, reference compound]",–,> 10000 nM,–,–,"inhibition at 1 µM (LNCaP cells; read-out: % Inhibition at 1 μM, 1 μM test substance, compared to cell growth in the presence of 0.1 nmol of R1881): 34%; antiproliferative action (in words) (LNCaP cells): little or no antiproliferative action; AR Content at 1 μM (androgen receptor): 230%; AR Content at 10 μM (androgen receptor): 180%"
"C[C@]1(O)CC[C@H]2[C@@H]3CCC4=CC(=O)CCC4=C3C=C[C@@]21C [Example R1881, 17β-hydroxy-17α-methylestra-4,9,11-trien-3-one, reference compound]",–,–,–,–,"influence on AR content (in words) (androgen receptor; LNCaP cells): stabilizes the AR protein; AR Content (androgen receptor; LNCaP cells, R1881 at 10 nM (printed in the 10 μM column), % of DMSO control): 250%"
